Data: patent publication US6664426B1, “Ether and ester derivatives of the perborate icosahedron” (The Regents of the University of California, priority 2000, dated 2003)

Experiment: Qualitative solubility in water
Assay type: physicochemical
Details: qualitative statement

Substance	solubility in water
Cs2[closo-B12(OH)12] [dicesium salt]	freely soluble in water
Cs2[closo-B12H12]^2−	sparingly water-soluble
closo-1,12-(CH2OH)2-1,12-C2B10H10	slightly water-soluble

Continued, values first:

solubility in water	Substance
not water-soluble	closo-1,12-C2B10H12
sparingly water-soluble	Cs[closo-1-CB11H12]^−
